Where “and” joins values, the source holds several entries; their conditions need not be identical. Equal entries are not always repeated. Entries after “also recorded” stand apart in the source; their conditions may differ.
Key:
[1] = Biodistribution in rats after iv injection (organs); format: in vivo; details: iv, 24 hrs
Protocol: Biodistribution in rats: Three rats per group were used for each biodistribution study. While under ether anesthesia, 0.2 mL of a saline solution containing 10 μCi of radioactive tracer was injected into the femoral vein. The rats were sacrificed at the time indicated by cardiac excision while under ether anesthesia. Organs of interest were removed and weighed, and the radioactivity was counted. The percent dose per organ was calculated by a comparison of the tissue counts to counts of 1% of the initial dose (100 times diluted aliquots of the injected material) measured at the same time.

serotonin transporters = target: T1, serotonin transporters (Rattus norvegicus, UniProt P31652); assay: Regional brain distribution and specific binding ratio in rats; format: in vivo; details: for Ratio of (Region-Cerebellum)/Cerebellum, CX / Ratio of (Region-Cerebellum)/Cerebellum, HP / Ratio of (Region-Cerebellum)/Cerebellum, HY / Ratio of (Region-Cerebellum)/Cerebellum, ST / Regional brain distribution CB (cerebellum) / Regional brain distribution CX (cortex) / Regional brain distribution HP (hippocampus) / Regional brain distribution HY (hypothalamus) / Regional brain distribution ST (striatum): iv
T1 construct: from tissue; host or cells: rat brain in vivo (hypothalamus, cortex, striatum, hippocampus, cerebellum); ex vivo brain sections
T1 sequence (P31652 whole entry): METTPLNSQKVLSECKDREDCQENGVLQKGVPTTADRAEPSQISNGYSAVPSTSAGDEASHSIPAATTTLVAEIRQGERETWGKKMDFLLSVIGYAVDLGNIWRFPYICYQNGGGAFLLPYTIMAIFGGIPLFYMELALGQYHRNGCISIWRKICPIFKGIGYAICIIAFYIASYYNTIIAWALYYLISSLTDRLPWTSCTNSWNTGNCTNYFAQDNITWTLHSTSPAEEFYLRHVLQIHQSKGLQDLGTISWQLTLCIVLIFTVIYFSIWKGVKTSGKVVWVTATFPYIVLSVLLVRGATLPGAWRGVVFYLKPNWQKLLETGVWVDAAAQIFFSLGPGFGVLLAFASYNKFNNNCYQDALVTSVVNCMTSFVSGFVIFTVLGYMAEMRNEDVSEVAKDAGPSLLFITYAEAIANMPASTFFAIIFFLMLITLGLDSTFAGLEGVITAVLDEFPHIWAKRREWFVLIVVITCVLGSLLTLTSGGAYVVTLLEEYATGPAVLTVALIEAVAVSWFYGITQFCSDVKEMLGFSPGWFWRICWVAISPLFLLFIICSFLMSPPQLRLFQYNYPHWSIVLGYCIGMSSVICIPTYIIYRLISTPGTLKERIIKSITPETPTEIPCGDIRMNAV
Protocol: Regional brain distribution in rats was measured after an i.v. injection of the radioactive tracer. Samples from different brain regions: cortex (frontal plus occipital), striatum, hippocampus, cerebellum and hypothalamus were dissected, weighed and counted. The percentage dose/g of each sample was calculated by comparing sample counts with the counts of the diluted initial dose described above. The specific binding ratio in each region was obtained by dividing the % dose/gram values between region by that in the cerebellum ([region-cerebellum/cerebellum]). The cerebellum region containing little or no serotonin transporters was used as the background region.

SERT binding sites = target: T2, SERT binding sites (Rattus norvegicus, UniProt P31652); assay: Ex vivo autoradiography of rat brain sections; format: in vivo, rats; details: rats, ex vivo after i.v. injection
T2 construct: from tissue; host or cells: rat brain in vivo (hypothalamus, cortex, striatum, hippocampus, cerebellum); ex vivo brain sections
T2 sequence (P31652 whole entry): as above

[2] = Stability of the radioactive material; details: refrigerator

## CN(C)Cc1ccccc1Oc1ccc([125I])cc1N [[^125I]4, [^125I][^123I]2-(2-(Dimethylaminomethyl)phenoxy)-5-iodophenylamine]
[1]
  Biodistribution Lung: 0.04 ± 0.00 % dose/organ
  Biodistribution Muscle: 1.13 ± 0.13 % dose/organ
  Biodistribution Skin: 4.02 ± 0.26 % dose/organ
  Biodistribution Spleen: 0.05 ± 0.01 % dose/organ
  Biodistribution Thyroid: 4.61 ± 1.21 % dose/organ
Serotonin transporters; 60-240 min post i.v. injection
  hypothalamus uptake compared to other radioiodinated compounds: highest uptake in hypothalamus
Serotonin transporters; 2 min
  Ratio of (Region-Cerebellum)/Cerebellum, CX: 0.56 ± 0.55
  Ratio of (Region-Cerebellum)/Cerebellum, HP: 0.13 ± 0.22
  Ratio of (Region-Cerebellum)/Cerebellum, HY: 0.24 ± 0.17
  Ratio of (Region-Cerebellum)/Cerebellum, ST: 0.01 ± 0.27
  Regional brain distribution CB (cerebellum): 0.79 ± 0.21 % dose/g
  Regional brain distribution CX (cortex): 1.16 ± 0.14 % dose/g
  Regional brain distribution HP (hippocampus): 0.86 ± 0.07 % dose/g
  Regional brain distribution HY (hypothalamus): 0.96 ± 0.15 % dose/g
  Regional brain distribution ST (striatum): 0.77 ± 0.04 % dose/g
Serotonin transporters; 30 min
  Ratio of (Region-Cerebellum)/Cerebellum, CX: 0.96 ± 0.14
  Ratio of (Region-Cerebellum)/Cerebellum, HP: 0.68 ± 0.22
  Ratio of (Region-Cerebellum)/Cerebellum, HY: 1.06 ± 0.22
  Ratio of (Region-Cerebellum)/Cerebellum, ST: 0.83 ± 0.23
  Regional brain distribution CB (cerebellum): 0.64 ± 0.09 % dose/g
  Regional brain distribution CX (cortex): 1.25 ± 0.13 % dose/g
  Regional brain distribution HP (hippocampus): 1.06 ± 0.12 % dose/g
  Regional brain distribution HY (hypothalamus): 1.30 ± 0.06 % dose/g
  Regional brain distribution ST (striatum): 1.16 ± 0.10 % dose/g
Serotonin transporters; 60 min
  Ratio of (Region-Cerebellum)/Cerebellum, CX: 1.35 ± 0.07
  Ratio of (Region-Cerebellum)/Cerebellum, HP: 1.30 ± 0.05
  Ratio of (Region-Cerebellum)/Cerebellum, HY: 1.92 and 1.92 ± 0.20
  Ratio of (Region-Cerebellum)/Cerebellum, ST: 1.51 ± 0.12
  Regional brain distribution CB (cerebellum): 0.41 ± 0.03 % dose/g
  Regional brain distribution CX (cortex): 0.95 ± 0.07 % dose/g
  Regional brain distribution HP (hippocampus): 0.94 ± 0.08 % dose/g
  Regional brain distribution HY (hypothalamus): 1.18 ± 0.08 % dose/g
  Regional brain distribution ST (striatum): 1.02 ± 0.11 % dose/g
Serotonin transporters; 120 min
  Ratio of (Region-Cerebellum)/Cerebellum, CX: 1.48 ± 0.13
  Ratio of (Region-Cerebellum)/Cerebellum, HP: 2.19 ± 0.07
  Ratio of (Region-Cerebellum)/Cerebellum, HY: 3.49 and 3.49 ± 0.09
  Ratio of (Region-Cerebellum)/Cerebellum, ST: 2.53 ± 0.17
  Regional brain distribution CB (cerebellum): 0.21 ± 0.01 % dose/g
  Regional brain distribution CX (cortex): 0.51 ± 0.04 % dose/g
  Regional brain distribution HP (hippocampus): 0.65 ± 0.04 % dose/g
  Regional brain distribution HY (hypothalamus): 0.92 ± 0.06 % dose/g
  Regional brain distribution ST (striatum): 0.72 ± 0.01 % dose/g
Serotonin transporters; 240 min
  Ratio of (Region-Cerebellum)/Cerebellum, CX: 1.12 ± 0.17
  Ratio of (Region-Cerebellum)/Cerebellum, HP: 2.47 ± 0.28
  Ratio of (Region-Cerebellum)/Cerebellum, HY: 4.49 and 4.3 and 4.49 ± 0.12
  Ratio of (Region-Cerebellum)/Cerebellum, ST: 3.11 ± 0.35
  Regional brain distribution CB (cerebellum): 0.06 ± 0.00 % dose/g
  Regional brain distribution CX (cortex): 0.12 ± 0.01 % dose/g
  Regional brain distribution HP (hippocampus): 0.20 ± 0.02 % dose/g
  Regional brain distribution HY (hypothalamus): 0.32 ± 0.03 % dose/g
  Regional brain distribution ST (striatum): 0.24 ± 0.02 % dose/g
Serotonin transporters; 6 hrs
  Ratio of (Region-Cerebellum)/Cerebellum, CX: 0.58 ± 0.09
  Ratio of (Region-Cerebellum)/Cerebellum, HP: 1.21 ± 0.11
  Ratio of (Region-Cerebellum)/Cerebellum, HY: 2.64 and 2.64 ± 0.54
  Ratio of (Region-Cerebellum)/Cerebellum, ST: 1.56 ± 0.41
  Regional brain distribution CB (cerebellum): 0.027 ± 0.002 % dose/g
  Regional brain distribution CX (cortex): 0.042 ± 0.002 % dose/g
  Regional brain distribution HP (hippocampus): 0.059 ± 0.005 % dose/g
  Regional brain distribution HY (hypothalamus): 0.097 ± 0.015 % dose/g
  Regional brain distribution ST (striatum): 0.068 ± 0.005 % dose/g
Serotonin transporters; 11 hrs
  Ratio of (Region-Cerebellum)/Cerebellum, CX: 0.00 ± 0.16
  Ratio of (Region-Cerebellum)/Cerebellum, HP: 0.09 ± 0.08
  Ratio of (Region-Cerebellum)/Cerebellum, HY: 0.44 ± 0.19
  Ratio of (Region-Cerebellum)/Cerebellum, ST: 0.14 ± 0.13
  Regional brain distribution CB (cerebellum): 0.011 ± 0.0013 % dose/g
  Regional brain distribution CX (cortex): 0.010 ± 0.0010 % dose/g
  Regional brain distribution HP (hippocampus): 0.012 ± 0.0021 % dose/g
  Regional brain distribution HY (hypothalamus): 0.016 ± 0.0025 % dose/g
  Regional brain distribution ST (striatum): 0.012 ± 0.0000 % dose/g
Serotonin transporters; 24 hrs
  Ratio of (Region-Cerebellum)/Cerebellum, HY: 0.23 ± 0.15
  Regional brain distribution CB (cerebellum): 0.0049 ± 0.0009 % dose/g
  Regional brain distribution CX (cortex): 0.0040 ± 0.0007 % dose/g
  Regional brain distribution HP (hippocampus): 0.0040 ± 0.0005 % dose/g
  Regional brain distribution HY (hypothalamus): 0.0060 ± 0.0010 % dose/g
  Regional brain distribution ST (striatum): 0.0039 ± 0.0004 % dose/g
SERT binding sites
  regional distribution pattern in brain: distinctive distribution pattern in the brain, which reflected regional distribution of SERT binding sites; also recorded: excellent regional distribution pattern consistent with known SERT localization
[2]
  stability in a refrigerator: stable in a refrigerator for at least three weeks

Source: patent US20060083680A1, “Diphenyl ether derivatives and their use for imaging serotonin transporters” (The Trustees of the University of Pennsylvania, priority 2004, published 2006)
